Consider nine compounds from patent publication US10220040B2, “Compounds, compositions and methods useful for cholesterol mobilization” (Cerenis Therapeutics Holding SA, priority 2010, dated 2019).

The target in assay [1] is human P2Y13 receptor (Homo sapiens (Human), UniProt Q9BPV8). The assay can be described thus: Ca++ flux agonist assay on P2Y13 receptor transfected 1321N1 cells. In kind it is cell-based. The following applies: comma is decimal sign. On the procedure:
Compounds were assayed for their agonist activity on P2Y13 GPCR transfected cells using a Ca++ flux assay (associated to fluorescent dye detection) with the Reference Compound as positive reference. Two cell lines, 1321N1-P2Y13 stably expressing human P2Y13 receptor, and 1321N1 parental cell line as control, were used in this assay. 1321N1 Parental and 1321N1 P2Y13 were seeded into T25 flasks at 3 million cells per flask, respectively. Cells were incubated at 37 degrees Celsius in 5% CO2 overnight. The day after, cells were transfected with Gqi5 protein using Fugene transfection reagent (Roche's Fugene Reagent).
After 24 hours of transfection, cells were collected from flasks and seeded in 384-well plates at 8000 cells per well. The assays were carried out 48 hours after Gqi5 transfection.
Methods: The Ca++ flux assay was conducted according to the manufacturer's protocol (Molecular Devices FLIPR Calcium 4 Assay kit (R8142). Briefly, cell culture media were aspirated from the wells and replaced with 25 μL of Hank's buffer or PBS buffer. 25 μL of Ca++ dye was added into each assay well. The plate was incubated for 1 hour at 37° C. in 5% CO2. After the incubation, the plate was transferred to FlexStation III (FlexStation III (Molecular Devices)). The compounds were automatically injected into each well.

Assay [2] deals with HepG2 cells. The assay can be described thus: In vitro HDL internalization in human hepatocytes (HepG2) cells. In kind it is cell-based. The conditions noted are these: compound 1 μM; 3H-labeled HDL 75 μg/ml, 10 min at 37° C. As to the method: FIG. 3: Single-dose effect of the selected molecules on HDL internalization by HepG2 cells. Cells were incubated for 10 min at 37° C. with 75 μg/ml ^3H cholesterol Cholesteryl Oleate [Cholesteryl-1,2-^3H(N)] HDL, Reference Compound (100 nM) and illustrative compounds of the invention (1 μM). Data are expressed as the percentage of internalized radioactivity with respect to the control value (set as […]). *p<0.005, **p<0.0001.
The effect of illustrative compounds of the invention on HDL internalization was measured by an in vitro assay on HepG2 cells (FIG. 3). ^3H cholesterol Cholesteryl Oleate [Cholesteryl-1,2-^3H(N)] labeled HDL] (available from PerkinElmer http://www.perkinelmer.com/Catalog/Product/ID/NET746L001MC) was loaded on HepG2 cells in presence of illustrative compounds of the invention (final concentration 1 μM). […] It was determined that Compounds XIa, IIc, IIa and Ih (R-isomer) have a strong impact on HDL uptake by HepG2 cells; Compounds IIb, VIIa and VIIIa have a modest impact on HDL uptake by HepG2 cells.
^3H cholesterol Cholesteryl Oleate [Cholesteryl-1,2-^3H(N)] (Perkin Elmer) solution (250 μL) was dried and resuspended in acetone (250 μL). The solution was mixed with Lipoprotein delipidated serum (20 mL at 40 mg/mL) and DTNB (0.4 μM final concentration). HDL (7 mg) was added and incubated overnight at 4° C. on gentle rotation. The HDL was purified on KBr gradient as previously described.
Hepatocytes were plated at 300,000 cells/well in 6×-well plates. Two days later, the cells were washed once with DMEM and incubated for 1 hour in DMEM at 37° C. 75 μg of radio-labeled HDL (6500 dpm/μg) were added to the medium and incubated for 10 minutes at 37° C. The cells were washed once with DMEM (2 mL) and incubated for 1.5 hours in DMEM at 4° C., whereupon dissociation occurred. Then the cells were washed once more with cold DMEM (2 mL) and the incorporated cholesterol ether was retrieved from HepG2 cells by the addition of hexane:isopropanol (3:2) solution (1 mL).

In assay [3] the test system is C57Bl6 mice. The assay can be described thus: Dose response on bile physiology after single oral gavage in mice. In kind it is in vivo. The conditions noted are these: oral gavage 0.003, 0.03 and 0.3 mg/kg, bile analyzed 6 hours later. As to the method:
FIG. 16A-J: Increase of bile secretion following activation of P2Y13r pathway in mice. C57Bl/6J mice (n=10) were fasted for 2 h and then intravenously injected with Cangrelor® or Compound IIa (10 nmoles/kg). Four hours later the gallbladders were removed and analyzed for: Bile acids content (FIG. 16A); Bile cholesterol content (FIG. 16B). C57Bl/6J mice (n=10) were fasted for 2 h followed by single oral dose of P2Y13r agonist Compound IIa at 3, 30 or 300 μg/kg. Six hours later bile acids contents (FIG. 16C); bile cholesterol content (FIG. 16D), and bile acid content of liver (FIG. 16E) were evaluated using HPLC and enzymatic kits for gallbladers. Plasma samples were collected at time 0 and after 6 h of treatment, then analyzed for: total cholesterol (▴), unesterified cholesterol (●), esterified cholesterol (▪) and HDL cholesterol (▾) determined using either enzymatic kits or Lipoprint® for HDL cholesterol (FIG. 16F). C57Bl/6J mice (n=5) were intravenously injected with [^3H]-cholesterol-labelled mouse HDL (FIG. 16G), [^3H]-cholesteryl oleate-labelled mouse HDL (FIG. 16H) or [^3H]-cholesterol-labelled mouse LDL (FIG. 16I), and with Cangrelor® or Compound IIa (10 nmoles/kg). Radioactivity present in the liver was determined 2 hours later for the HDL or 5 hours later for the LDL. Cholesterol content of feces from treated animals (100 μg/kg) was determined by Charge aerosol detection (FIG. 16J). *p<0.05, **p<0.01.
The dose response after oral gavage was determined for illustrative compounds of the invention. The chosen doses were 0.003, 0.03 and 0.3 mg/kg. The selected compounds of the invention were administrated by oral gavage and 6 hours later the mice are sacrificed and the bile content was analyzed (FIGS. 6-11).
Bile acids were diluted in PBS (1:5000) and the concentration was measured according to the manufacturer protocol with slight modifications. Concentrations of bile acids in the standard curve were varied from […] and the enzymatic reaction was performed for 20 minutes. 4 μl of 1:5000 bile dilution was used for concentration determination.
Bile phospholipids were measured according to the manufacturer protocol. Briefly, the standards were varied from 0 to 20 μg/ml and 4 μl of bile was measured in the assay. The reaction was performed for 5 minutes at 37° C.
Bile phospholipids were measured according to the manufacturer protocol. Briefly, the standards were varied from 0 to 60 μg/ml and 10 μl of bile (dilution 1:10) was measured in the assay. The reaction was performed for 5 minutes at 37° C.

The test system of assay [4] is HepG2 cells. The conditions noted are these: previously reported (Jacquet et al. 2005); positive control; cited from earlier work.
[5] abbreviates: Table 4, measured from data of Figure 2.
Where [6] appears, read: Table 3, measured from data of Figure 1.

human P2Y13 receptor, sequence (Q9BPV8 whole entry): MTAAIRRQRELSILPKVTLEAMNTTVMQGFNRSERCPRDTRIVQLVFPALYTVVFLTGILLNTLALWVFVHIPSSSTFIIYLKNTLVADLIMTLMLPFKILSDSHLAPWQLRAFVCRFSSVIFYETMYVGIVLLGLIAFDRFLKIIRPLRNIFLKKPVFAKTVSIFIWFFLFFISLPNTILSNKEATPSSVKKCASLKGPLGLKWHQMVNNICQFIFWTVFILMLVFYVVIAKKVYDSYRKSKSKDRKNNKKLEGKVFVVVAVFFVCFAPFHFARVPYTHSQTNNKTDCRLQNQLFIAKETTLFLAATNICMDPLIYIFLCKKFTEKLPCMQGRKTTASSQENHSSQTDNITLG

As to “6-[1-(2-methylaminopyrimidin-5-ylmethyl)-piperidin-4-yl]-2-piperidin-1-yl-pyrimidin-4-ol [Compound IIc]”, the concentration for a half-maximal effect (EC50) in assay [1] (setting [5]) turned out to be 6.63 µM. Besides, the “impact on HDL uptake by HepG2 cells” value in assay [2] was “strong impact”. Also, the “dose at which an effect on bile acids, bile cholesterol and bile phospholipids was shown” value (from here on “dose at which an effect on bile acids”) in assay [3] was 3 µg/kg.
The matching figures for `COc1ccc(CN2CCC(c3cc(O)nc(N4CCCCC4)n3)CC2)cc1O` [Compound IIb, 6-[1-(3-Hydroxy-4-methoxybenzyl)-piperidin-4-yl]-2-piperidin-1-yl-pyrimidin-4-ol]: 0.299 µM, “modest impact” and 300 µg/kg.
The compound `CCOC(=O)C(C)(C)CCCC[C@H](c1ccccc1Cl)N1CCc2sccc2C1` [Compound Ih (R-isomer)] showed an EC50 in assay [1] (setting [6]) of 42.4 µM. For the same compound, in assay [2], the “impact on HDL uptake by HepG2 cells” value is on record as “strong impact”.
`CCOC(=O)C(C)(C)CCCC[C@@H](c1ccccc1Cl)N1CCc2sccc2C1` [Compound Ih (S-isomer)]: the EC50 in assay [1] (setting [6]) came to 33.7 µM.
`CCOc1cc(C2CC(=O)Nc3c2cnn3-c2ccccc2CC)ccc1O` (stereo not shown) [Compound VIIIa, 4-(3-Ethoxy-4-hydroxy-phenyl)-1-(2-ethyl-phenyl)-1,4,5,7-tetrahydro-pyrazolo[3,4-b]pyridin-6-one]: in assay [3], the “dose at which an effect on bile acids” value stood at 3 µg/kg.
`O=C(C1OCCc2ccccc21)N1CCC2(CC1)Nc1ccccc1-n1cccc12` (stereo not shown) [Compound VIIa, isochroman-1-yl(5′H-spiro[piperidine-4,4′-pyrrolo[1,2-a]quinoxaline]-1-yl)methanone] came in with an EC50 in assay [1] (setting [5]) of 40.3 µM. Moreover, in assay [2], the “impact on HDL uptake by HepG2 cells” value was “modest impact”. The “dose at which an effect on bile acids” value in assay [3] stood at 300 µg/kg.
`CC(C)(CCCCCC(c1ccccc1Cl)N1CCC(O)/C(=C/C(=O)O)C1)C(=O)O` (stereo not shown) [Compound Va] had a 50% effective concentration (EC50) in assay [1] (setting [6]) of 55.2 µM. In other words, the double-digit micromolar range.
On to `COCCNCC(=O)Nc1ccc2c(c1)OCCO2` [Compound XIa, N-(2,3-Dihydrobenzo[1,4]dioxin-6-yl)-2-(2-methoxy-ethylamino)-acetamide], for which, in assay [1] (setting [5]), the 50% effective concentration (EC50) is 0.0489 µM. The “impact on HDL uptake by HepG2 cells” value in assay [2] is “strong impact”. In assay [3], the “dose at which an effect on bile acids” value was 3 µg/kg.
In the case of `CSCCNc1nc(SCCC(F)(F)F)nc2c1ncn2[C@@H]1O[C@H](COP(=O)(O)OP(=O)(O)C(Cl)(Cl)P(=O)(O)O)[C@@H](O)[C@H]1O` [Reference Compound, Dichloro-(((((2R,3S,4R,5R)-3,4-dihydroxy-5-(6-(2-(methylthio)ethylamino)-2-(3,3,3-trifluoropropylthio)-9H-purin-9-yl)tetrahydrofuran-2-yl)methoxy)(hydroxy)phosphoryloxy)(hydroxy)phosphoryl)-methylphosphonic acid, reference compound], the EC50 in assay [1] (setting [5]) came to 0.00632 µM. In assay [4], the “HDL uptake in HepG2 cells in vitro” value was “increase the HDL uptake”.

What is called EC50 is the midpoint of the concentration-response curve. A higher EC50 goes with a need for much substance.
